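Exposure lasted 48 hours, with cells grown in 96-well plates and compounds tested at five concentrations. GI50 = concentration required for 50% inhibition of growth.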 The source made the active and inactive calls. Rule as the data show it: active = GI50 up to about 1.1 µM and inactive = higher.
Key:
Experiment in all cases: inhibition of tumour cell growth, NCI panel, 48 h
EKVX = system: EKVX
HCT-116 = system: HCT-116
SR = system: SR
IGROV-1 = system: IGROV-1
HL-60 = system: HL-60
COLO 205 = system: COLO 205
TK-10 = system: TK-10
ACHN = system: ACHN
SK-MEL-2 = system: SK-MEL-2
OVCAR-8 = system: OVCAR-8
SW-620 = system: SW-620
NCI-H23 = system: NCI-H23
RXF 393 = system: RXF 393
SK-MEL-28 = system: SK-MEL-28
MOLT-4 = system: MOLT-4
CCRF-CEM = system: CCRF-CEM
MCF7 = system: MCF7
MDA-MB-435 = system: MDA-MB-435
DU-145 = system: DU-145
BT-549 = system: BT-549

Measured: GI50

C=C(C)C1CC=C(C)CC1 (centres undefined)
inactive: EKVX 1030 µM | HCT-116 923 µM | SR 889 µM | IGROV-1 993 µM | HL-60 817 µM | COLO 205 1010 µM | TK-10 1000 µM | ACHN 871 µM | SK-MEL-2 798 µM | OVCAR-8 1040 µM | SW-620 895 µM | NCI-H23 933 µM | RXF 393 982 µM | SK-MEL-28 951 µM | MOLT-4 1140 µM | CCRF-CEM 826 µM

COC(=O)c1cc(CC2Cc3cc4c(cc3C2)CCC4)cc2c1CCC2
inactive: EKVX > 100 µM | HCT-116 58.7 µM | SR 29.5 µM | IGROV-1 97.1 µM | MCF7 89.1 µM | HL-60 56.6 µM | COLO 205 > 100 µM | MDA-MB-435 48 µM | TK-10 > 100 µM | ACHN > 100 µM | SK-MEL-2 40.4 µM | OVCAR-8 > 100 µM | SW-620 > 100 µM | NCI-H23 > 100 µM | RXF 393 62.2 µM | SK-MEL-28 > 100 µM | DU-145 > 100 µM | MOLT-4 23.7 µM | CCRF-CEM 52.5 µM

Cc1cccc(N2C(=O)C(Cl)=C(Cl)C2=O)c1
inactive: EKVX > 74 µM | HCT-116 38.6 µM | SR 18.2 µM | IGROV-1 > 100 µM | HL-60 > 100 µM | COLO 205 > 69 µM | TK-10 > 66.8 µM | ACHN > 49.1 µM | SK-MEL-2 > 100 µM | OVCAR-8 > 100 µM | SW-620 > 44 µM | NCI-H23 > 69.2 µM | RXF 393 16.5 µM | SK-MEL-28 > 54.5 µM | MOLT-4 33.9 µM | CCRF-CEM 18.5 µM

CC(C)CCNC(=O)c1ccc(CNC(=O)/C=C/c2ccc3ccccc3c2)cc1
inactive: EKVX > 100 µM | HCT-116 > 100 µM | SR > 100 µM | MCF7 > 100 µM | HL-60 > 100 µM | COLO 205 > 100 µM | MDA-MB-435 > 100 µM | ACHN > 100 µM | SK-MEL-2 > 100 µM | OVCAR-8 > 100 µM | SW-620 > 100 µM | NCI-H23 > 100 µM | RXF 393 > 100 µM | SK-MEL-28 > 100 µM | DU-145 > 100 µM | MOLT-4 > 100 µM | CCRF-CEM > 10 µM

C=C1C(=O)O[C@@H]2C=C(C)C3=CC(=O)[C@](C)(C[C@H](OC(=O)/C(C)=C\C)[C@@H]12)O3
inactive: SK-MEL-2 1.7 µM | NCI-H23 1.22 µM | SK-MEL-28 1.24 µM | DU-145 4.1 µM
active: HCT-116 0.282 µM | SR 0.201 µM | IGROV-1 1.03 µM | MCF7 0.41 µM | HL-60 0.157 µM | COLO 205 0.51 µM | MDA-MB-435 0.813 µM | ACHN 0.489 µM | OVCAR-8 0.51 µM | SW-620 0.306 µM | RXF 393 0.29 µM | MOLT-4 0.273 µM | CCRF-CEM 0.209 µM

COc1cc2cnc3c4cc(O)ccc4ccc3c2cc1OC
inactive: EKVX > 100 µM | HCT-116 > 100 µM | SR 34.2 µM | IGROV-1 75.7 µM | HL-60 33.2 µM | COLO 205 12.9 µM | TK-10 > 100 µM | ACHN > 100 µM | SK-MEL-2 26.4 µM | OVCAR-8 23.6 µM | SW-620 54.7 µM | NCI-H23 45.7 µM | RXF 393 46.5 µM | SK-MEL-28 65.6 µM | MOLT-4 31.1 µM | CCRF-CEM 29.9 µM

O=C(CC(C(=O)c1ccsc1)c1ccccc1)c1cccs1 (centres undefined)
inactive: EKVX > 100 µM | HCT-116 44.5 µM | SR 57.4 µM | IGROV-1 > 100 µM | MCF7 33 µM | HL-60 41.1 µM | COLO 205 > 100 µM | MDA-MB-435 40.6 µM | TK-10 > 100 µM | ACHN 67.6 µM | OVCAR-8 58.1 µM | SW-620 > 100 µM | NCI-H23 22 µM | RXF 393 59.3 µM | SK-MEL-28 > 100 µM | DU-145 > 100 µM | MOLT-4 49.9 µM | CCRF-CEM 80.5 µM

COC(=N)/C(=C1\OC(=N)C(c2ccc(Cl)cc2)=C1O)c1ccc(Cl)cc1
inactive: EKVX > 100 µM | HCT-116 > 100 µM | SR > 100 µM | IGROV-1 > 100 µM | HL-60 81.7 µM | COLO 205 > 100 µM | TK-10 > 100 µM | ACHN > 100 µM | SK-MEL-2 > 100 µM | OVCAR-8 > 100 µM | SW-620 > 100 µM | NCI-H23 > 100 µM | RXF 393 > 100 µM | SK-MEL-28 > 100 µM | MOLT-4 > 100 µM | CCRF-CEM 70.5 µM

CCCC(C(=O)OC)C1N/C(=N/C#N)N(Cc2ccccc2)C1=O (centres undefined)
inactive: EKVX > 100 µM | HCT-116 > 100 µM | SR 91.2 µM | IGROV-1 > 100 µM | HL-60 > 100 µM | COLO 205 > 100 µM | TK-10 > 100 µM | ACHN > 100 µM | SK-MEL-2 > 100 µM | OVCAR-8 > 100 µM | SW-620 > 100 µM | NCI-H23 > 100 µM | RXF 393 > 100 µM | SK-MEL-28 > 100 µM | MOLT-4 > 100 µM | CCRF-CEM > 100 µM

O=C1C=C2CCC[C@H]3OC(=O)C[C@@]23CC1
inactive: EKVX > 100 µM | HCT-116 > 100 µM | SR > 100 µM | IGROV-1 > 100 µM | HL-60 > 100 µM | COLO 205 > 100 µM | MDA-MB-435 > 100 µM | TK-10 > 100 µM | ACHN > 100 µM | SK-MEL-2 > 100 µM | SW-620 > 100 µM | NCI-H23 > 100 µM | RXF 393 > 100 µM | SK-MEL-28 > 100 µM | DU-145 > 100 µM | MOLT-4 > 100 µM

Cn1cnc(N2CCCC2)c(C#N)c1=O
inactive: EKVX > 100 µM | HCT-116 > 100 µM | SR > 100 µM | IGROV-1 > 100 µM | MCF7 > 100 µM | HL-60 > 100 µM | COLO 205 > 100 µM | MDA-MB-435 > 100 µM | TK-10 > 100 µM | ACHN > 100 µM | SK-MEL-2 > 100 µM | OVCAR-8 > 100 µM | SW-620 > 100 µM | NCI-H23 > 100 µM | RXF 393 > 100 µM | SK-MEL-28 > 100 µM | DU-145 > 100 µM | MOLT-4 > 100 µM | CCRF-CEM > 100 µM

COc1ccccc1NC(=S)NN=C(C)c1cccc(C(C)=NNC(=S)Nc2ccccc2OC)n1
inactive: EKVX 24 µM | HCT-116 2.95 µM | SR 1.66 µM | IGROV-1 25.5 µM | MCF7 29.1 µM | HL-60 26.3 µM | COLO 205 19.6 µM | MDA-MB-435 23 µM | ACHN 14.7 µM | SK-MEL-2 44.9 µM | OVCAR-8 12.9 µM | SW-620 7.73 µM | NCI-H23 33.9 µM | RXF 393 12.9 µM | SK-MEL-28 79.4 µM | DU-145 24 µM | MOLT-4 3.54 µM | CCRF-CEM 4.78 µM
active: TK-10 0.18 µM

O=C1Nc2ccccc2/C1=N/NC(=S)N1CCCCCC1
active: EKVX 0.851 µM | HCT-116 0.312 µM | SR 0.212 µM | IGROV-1 0.187 µM | COLO 205 1.03 µM | ACHN 0.824 µM | OVCAR-8 0.895 µM | SW-620 0.594 µM | RXF 393 0.644 µM | MOLT-4 0.366 µM
inactive: MCF7 1.96 µM | MDA-MB-435 1.26 µM | TK-10 1.8 µM | SK-MEL-2 1.66 µM | NCI-H23 1.21 µM | SK-MEL-28 1.87 µM | DU-145 2.2 µM

O=P1(Oc2ccc(Cl)cc2)OCCS1 (centres undefined)
inactive: EKVX > 100 µM | HCT-116 > 100 µM | SR > 100 µM | IGROV-1 > 100 µM | HL-60 80.7 µM | COLO 205 > 100 µM | TK-10 > 100 µM | ACHN > 100 µM | SK-MEL-2 > 100 µM | OVCAR-8 > 100 µM | SW-620 > 100 µM | BT-549 > 100 µM | NCI-H23 > 100 µM | RXF 393 > 100 µM | SK-MEL-28 > 100 µM | DU-145 > 100 µM | CCRF-CEM > 100 µM

Cc1nc2c(C)ccc([N+](=O)[O-])c2c(NCCCN(C)C)c1C
inactive: EKVX > 59.7 µM | HCT-116 74.6 µM | SR 38.3 µM | IGROV-1 > 100 µM | MCF7 46.5 µM | HL-60 24.9 µM | COLO 205 23.9 µM | MDA-MB-435 39.2 µM | TK-10 > 41.6 µM | ACHN > 100 µM | SK-MEL-2 > 44.6 µM | OVCAR-8 > 46.6 µM | SW-620 > 38.5 µM | NCI-H23 > 75.9 µM | RXF 393 58.7 µM | SK-MEL-28 27.1 µM | DU-145 > 100 µM | MOLT-4 28.3 µM | CCRF-CEM 51.6 µM

CC1=C(C(=O)Nc2ccccc2C)C(c2ccc(Cl)cc2)C(C(=O)Nc2ccccc2C)=C(C)N1
inactive: EKVX > 100 µM | HCT-116 > 100 µM | SR > 100 µM | IGROV-1 > 100 µM | HL-60 > 100 µM | COLO 205 > 100 µM | TK-10 > 100 µM | ACHN > 100 µM | SK-MEL-2 > 100 µM | OVCAR-8 > 100 µM | SW-620 > 100 µM | NCI-H23 > 100 µM | RXF 393 > 100 µM | SK-MEL-28 > 100 µM | MOLT-4 > 100 µM | CCRF-CEM > 100 µM
